In US9233929B2, “Fungicide N-cycloalkyl-N-bicyclimethylene-carboxamide derivatives” (priority 2009, dated 2016):

Assay: logP
Assay type: physicochemical

SMILES | logP
Cc1nn(C)c(F)c1C(=S)N(C1CC1)C(C)C1CCCc2ccccc21 (centres unmarked) [I.3, N-cyclopropyl-5-fluoro-1,3-dimethyl-N-[1-(1,2,3,4-tetrahydronaphthalen-1-yl)ethyl]-1H-pyrazole-4-carbothioamide] | 4.39
CC(N(C(=O)c1cn(C)nc1C(F)F)C1CC1)C1(O)CCCc2ccccc21 (centres unmarked) [I.10, N-cyclopropyl-3-(difluoromethyl)-N-[1-(1-hydroxy-1,2,3,4-tetrahydronaphthalen-1-yl)ethyl]-1-methyl-1H-pyrazole-4-carboxamide] | 2.94
